# Source: US9475798B2, “Azetidine estrogen receptor modulators and uses thereof” (Genentech, Inc., priority 2013, dated 2016)
# Where two headings read alike, the source gives them in different places.
# What was measured:
# [1] = tested on: MCF-7 cells; assay: Breast Cancer Cell Viability Assay (MCF7, CellTiter-Glo); settings: for MCF7 Viability Assay: % Viability relative to Fulvestrant: 5 days, 100-{100*[(100-% viability of Example)/(100-% viability of Fulvestrant)]};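 for all read-outs here: CellTiter-Glo luminescence read-out, background from cell-free medium subtracted, viability expressed against untreated cells, ten-point 1:5 compound dilution series spanning 10 to 0.000005 µM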
# [2] = molecular target: T1, ER-α (Homo sapiens, UniProt P03372); assay: Breast Cancer Cell ER-α In-Cell Western Assay (SP1); assay type: cell-based; settings: MCF7 cells, 4 hours; 100-{100*[(100-% ER level of Example)/(100-% ER level of Fulvestrant)]}
# T1 construct: endogenous in cells; host or cells: MCF7
# T1 sequence (P03372 1-595): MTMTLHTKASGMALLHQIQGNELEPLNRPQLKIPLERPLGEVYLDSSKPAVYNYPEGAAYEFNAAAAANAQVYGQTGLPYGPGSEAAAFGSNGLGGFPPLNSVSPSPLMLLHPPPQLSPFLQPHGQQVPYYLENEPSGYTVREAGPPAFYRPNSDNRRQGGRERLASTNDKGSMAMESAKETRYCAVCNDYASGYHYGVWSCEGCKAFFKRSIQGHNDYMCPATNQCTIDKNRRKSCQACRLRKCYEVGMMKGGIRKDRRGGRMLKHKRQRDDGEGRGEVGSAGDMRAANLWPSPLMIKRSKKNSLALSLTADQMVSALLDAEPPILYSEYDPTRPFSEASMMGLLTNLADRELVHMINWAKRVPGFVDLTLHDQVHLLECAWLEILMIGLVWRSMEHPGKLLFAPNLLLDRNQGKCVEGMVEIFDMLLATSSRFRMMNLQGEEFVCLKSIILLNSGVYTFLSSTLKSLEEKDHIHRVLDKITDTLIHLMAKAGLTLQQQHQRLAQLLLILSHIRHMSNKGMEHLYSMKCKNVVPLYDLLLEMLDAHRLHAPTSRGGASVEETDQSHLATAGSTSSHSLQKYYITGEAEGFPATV
# Experimental: MCF7 cells were trypsinized and washed twice in Phenol Red Free RPMI containing 5% Charcoal Dextran Stripped serum with 20 mM HEPES and NEAA, then adjusted to a concentration of 200,000 cells per mL with the same medium. […] At 4 hours post compound addition, the cells were fixed by adding 16 μL of 30% formalin to the 32 μL of cells and compound (10% formalin final concentration) for 20 minutes. Cells were then washed twice with PBS Tween 0.1% and then permeabilized in PBS 0.1% Triton (50 μl/well) for additional 15 minutes. The PBS 0.1% triton was decanted, and the cells were washed: LI-COR blocking buffer (50 μL/well) was added, the plate was spun at 3000 rpm, and then the blocking buffer was decanted. Additional LI-COR blocking buffer (50 μL/well) was added, and the cells were incubated overnight at 4° C. The blocking buffer was decanted, and the cells were incubated overnight at 4° C. with SP1 (Thermo Scientific) anti-ER rabbit monoclonal antibody diluted 1:1000 in LI-COR blocking buffer/0.1% Tween-20. Wells which were treated with blocking buffer with Tween but no antibody were used as a background control. Wells were washed twice with PBS Tween 0.1% to remove free SP1 antibodies, and the cells were incubated at room temp for 60-90 minutes in LI-COR goat anti-rabbit IRDye™ 800 CW (1:1000) and DRAQ5 DNA dye (1:10000 of 5 mM stock solution) diluted in LI-COR blocking buffer containing 0.1% Tween-20 and 0.01% SDS. Cells were then washed with 0.1% Tween-20/PBS three times. Plates were scanned on a LI-COR Odyssey infrared imaging system. Integrated intensities in the 800 nm channel and 700 nm channel were measured to determine levels of ER-α and DNA respectively. Percent ER levels were determined as follows: (Integrated intensity 800 nm sample/integrated intensity 700 nm sample)/(Integrated intensity 800 nm untreated cells/integrated intensity 700 nm untreated cells)×100=% ER-α levels.
# [3] = read-out: MCF7 Viability Assay IC50, 5 days' compound exposure
"IC50 [1, 3]",ER-α In-Cell Western Assay (SP1): % ER-α remaining relative to Fulvestrant [2],"IC50 ([1]; read-out: MCF7 Viability Assay IC50, 5 days' compound exposure, cell printed without unit)",Compound,MCF7 Viability Assay: % Viability relative to Fulvestrant [1]
26 nM,,,"CC1=C(c2ccc(F)cc2)[C@@H](c2ccc(OCCN3CC(CF)C3)cc2)Oc2ccc(O)cc21 (single isomer, unassigned) [Example 2]",3%
0.7 nM,14%,,"CC1=C(c2ccc(F)c(F)c2)C(c2ccc(OC[C@H](C)N3CC[C@@H](C)C3)cc2)Oc2ccc(O)cc21 (stereo partly drawn) [3-(3,4-difluorophenyl)-4-methyl-2-(4-((S)-2-((R)-3-methylpyrrolidin-1-yl)propoxy)phenyl)-2H-chromen-6-ol, reference compound]",19%
1.9 nM,15%,,"CC1=C(c2ccc(Cl)cc2)C(c2ccc(OC[C@H](C)N3CC[C@@H](C)C3)cc2)Oc2ccc(O)cc21 (stereo partly drawn) [3-(4-chlorophenyl)-4-methyl-2-(4-((S)-2-((R)-3-methylpyrrolidin-1-yl)propoxy)phenyl)-2H-chromen-6-ol, reference compound]",14%
0.4 nM,18%,,"CC1=C(c2ccc(F)cc2)C(c2ccc(OC[C@H](C)N3CC[C@@H](C)C3)cc2)Oc2ccc(O)cc21 (stereo partly drawn) [3-(4-fluorophenyl)-4-methyl-2-(4-((S)-2-((R)-3-methylpyrrolidin-1-yl)propoxy)phenyl)-2H-chromen-6-ol, reference compound]",17%
,13%,,"CC1=C(c2ccc(F)cc2)[C@@H](c2ccc(OC[C@H](C)N3CC[C@@H](C)C3)cc2)Oc2ccc(O)cc21 [(R)-3-(4-fluorophenyl)-4-methyl-2-(4-((S)-2-((R)-3-methylpyrrolidin-1-yl)propoxy)phenyl)-2H-chromen-6-ol, reference compound]",
,16%,0.3 nM,"CC1=C(c2ccc(F)cc2)[C@H](c2ccc(OC[C@H](C)N3CC[C@@H](C)C3)cc2)Oc2ccc(O)cc21 [(S)-3-(4-fluorophenyl)-4-methyl-2-(4-((S)-2-((R)-3-methylpyrrolidin-1-yl)propoxy)phenyl)-2H-chromen-6-ol, reference compound]",14%
0.36 nM,,,"CC1=C(c2ccc(F)cc2)C(c2ccc(OCCN3CC(CF)C3)cc2)Oc2ccc(O)cc21 (stereo not shown) [Example 1, 2-(4-(2-(3-(Fluoromethyl)azetidin-1-yl)ethoxy)phenyl)-3-(4-fluorophenyl)-4-methyl-2H-chromen-6-ol]",3%
1.2 nM,3%,,"CC1=C(c2ccc(Cl)cc2)C(c2ccc(OCCN3CC(CF)C3)cc2)Oc2ccc(O)cc21 (stereo not shown) [Example 4, 3-(4-Chlorophenyl)-2-(4-(2-(3-(fluoromethyl)azetidin-1-yl)ethoxy)phenyl)-4-methyl-2H-chromen-6-ol]",3%
3.5 nM,2%,,"CC1=C(c2ccc(C#N)cc2)C(c2ccc(OCCN3CC(CF)C3)cc2)Oc2ccc(O)cc21 (stereo not shown) [Example 7, 4-(2-(4-(2-(3-(Fluoromethyl)azetidin-1-yl)ethoxy)phenyl)-6-hydroxy-4-methyl-2H-chromen-3-yl)benzonitrile]",0%
0.41 nM,1%,,"CC1=C(c2ccc(F)c(F)c2)C(c2ccc(OCCN3CC(CF)C3)cc2)Oc2ccc(O)cc21 (stereo not shown) [Example 10, 3-(3,4-Difluorophenyl)-2-(4-(2-(3-(fluoromethyl)azetidin-1-yl)ethoxy)phenyl)-4-methyl-2H-chromen-6-ol]",2%
0.53 nM,2%,,"CC1=C(c2ccc(F)c(Cl)c2)C(c2ccc(OCCN3CC(CF)C3)cc2)Oc2ccc(O)cc21 (stereo not shown) [Example 13, 3-(3-Chloro-4-fluorophenyl)-2-(4-(2-(3-(fluoromethyl)azetidin-1-yl)ethoxy)phenyl)-4-methyl-2H-chromen-6-ol]",1%
0.71 nM,1%,,"CC1=C(c2ccc(Cl)c(F)c2)C(c2ccc(OCCN3CC(CF)C3)cc2)Oc2ccc(O)cc21 (stereo not shown) [Example 16, 3-(4-Chloro-3-fluorophenyl)-2-(4-(2-(3-(fluoromethyl)azetidin-1-yl)ethoxy)phenyl)-4-methyl-2H-chromen-6-ol]",1%
0.42 nM,0%,,"CC1=C(c2cc(F)c(F)c(F)c2)C(c2ccc(OCCN3CC(CF)C3)cc2)Oc2ccc(O)cc21 (stereo not shown) [Example 19, 2-(4-(2-(3-(Fluoromethyl)azetidin-1-yl)ethoxy)phenyl)-4-methyl-3-(3,4,5-trifluorophenyl)-2H-chromen-6-ol]",0%
12 nM,8%,,"CC1=C(c2ccc(C(F)(F)F)cc2)C(c2ccc(OCCN3CC(CF)C3)cc2)Oc2ccc(O)cc21 (stereo not shown) [Example 22, 2-(4-(2-(3-(Fluoromethyl)azetidin-1-yl)ethoxy)phenyl)-4-methyl-3-(4-(trifluoromethyl)phenyl)-2H-chromen-6-ol]",6%
0.3 nM,2%,,"CC1=C(c2ccc(F)cc2)C(c2ccc(OCCN3CC(CF)C3)cc2)Oc2cc(O)ccc21 (stereo not shown) [Example 25, 2-(4-(2-(3-(Fluoromethyl)azetidin-1-yl)ethoxy)phenyl)-3-(4-fluorophenyl)-4-methyl-2H-chromen-7-ol]",7%
0.8 nM,3%,,"CC1=C(c2ccc(Cl)cc2)C(c2ccc(OCCN3CC(CF)C3)cc2)Oc2cc(O)ccc21 (stereo not shown) [Example 28, 3-(4-Chlorophenyl)-2-(4-(2-(3-(fluoromethyl)azetidin-1-yl)ethoxy)phenyl)-4-methyl-2H-chromen-7-ol]",6%
0.2 nM,14%,,"CC1=C(c2cccc(O)c2)C(c2ccc(OCCN3CC(C)C3)cc2)Oc2ccc(O)cc21 (stereo not shown) [Example 31, 3-(3-Hydroxyphenyl)-4-methyl-2-(4-(2-(3-methylazetidin-1-yl)ethoxy)phenyl)-2H-chromen-6-ol]",13%

Compound,"IC50 [1, 3]",ER-α In-Cell Western Assay (SP1): % ER-α remaining relative to Fulvestrant [2],"IC50 ([1]; read-out: MCF7 Viability Assay IC50, 5 days' compound exposure, cell printed without unit)",MCF7 Viability Assay: % Viability relative to Fulvestrant [1]
"CC1=C(c2ccc(C#N)cc2)C(c2ccc(OC[C@H](C)N3CC[C@@H](C)C3)cc2)Oc2ccc(O)cc21 (stereo partly drawn) [4-(6-hydroxy-4-methyl-2-(4-((S)-2-((R)-3-methylpyrrolidin-1-yl)propoxy)phenyl)-2H-chromen-3-yl)benzonitrile, reference compound]",10 nM,,,15%
